This passage reports EC50 results from PMC5814754, “Quantitative, Wide-Spectrum Kinase Profiling in Live Cells for Assessing the Effect of Cellular ATP on Target Engagement” (Cell Chemical Biology, 2018).

Experiment in all cases: Apparent affinity (EC50) of energy transfer probes by titration onto live HEK293 cells expressing kinase/Nluc fusions (Table S1)
Holding throughout (type): binding

For assay [1], the target named is full-length kinase/Nluc fusion proteins (Homo sapiens, UniProt P49841). As to conditions: GSK3B, Nluc N; read-out: Probe EC50.
Assay [2] concerns the target full-length kinase/Nluc fusion proteins (Homo sapiens, UniProt P49840). As to conditions: GSK3A, Nluc N; read-out: Probe EC50.
The target of assay [3] is full-length kinase/Nluc fusion proteins (Homo sapiens, UniProt P54762). As to conditions: EPHB1, Nluc C; read-out: Probe EC50.
For assay [4], the target named is full-length kinase/Nluc fusion proteins (Homo sapiens, UniProt Q04771). The settings on record: ACVR1, Nluc C; read-out: Probe EC50.
Assay [5] deals with full-length kinase/Nluc fusion proteins (Homo sapiens, UniProt P50750). As to conditions: CDK9, Nluc N; read-out: Probe EC50.
The target of assay [6] is full-length kinase/Nluc fusion proteins (Homo sapiens, UniProt O94768). The settings on record: STK17B (NP_004217), Nluc orientation C; read-out: Probe EC50.
The target of assay [7] is full-length kinase/Nluc fusion proteins (Homo sapiens, UniProt Q92772). As to conditions: CDKL2, Nluc N; read-out: Probe EC50.
For assay [8], the target named is full-length kinase/Nluc fusion proteins (Homo sapiens, UniProt Q00532). As to conditions: CDKL1, Nluc N; read-out: Probe EC50.
Assay [9] has as its target full-length kinase/Nluc fusion proteins (Homo sapiens, UniProt P29320). As to conditions: EPHA3, Nluc C; read-out: Probe EC50.
Assay [10] has as its target full-length kinase/Nluc fusion proteins (Homo sapiens, UniProt Q13546). The settings on record: RIPK1, Nluc N (probe 1).
The target of assay [11] is full-length kinase/Nluc fusion proteins (Homo sapiens, UniProt Q8IVW4). The settings on record: CDKL3, Nluc N; read-out: Probe EC50.
Assay [12] has as its target full-length kinase/Nluc fusion proteins (Homo sapiens, UniProt P24941). The settings on record: CDK2, Nluc C; read-out: Probe EC50.
Assay [13] deals with full-length kinase/Nluc fusion proteins (Homo sapiens, UniProt Q9UPZ9). The settings on record: ICK, Nluc N; read-out: Probe EC50.

Sequence of full-length kinase/Nluc fusion proteins (Homo sapiens, UniProt P49840) (P49840 whole entry, the tested form may be a part): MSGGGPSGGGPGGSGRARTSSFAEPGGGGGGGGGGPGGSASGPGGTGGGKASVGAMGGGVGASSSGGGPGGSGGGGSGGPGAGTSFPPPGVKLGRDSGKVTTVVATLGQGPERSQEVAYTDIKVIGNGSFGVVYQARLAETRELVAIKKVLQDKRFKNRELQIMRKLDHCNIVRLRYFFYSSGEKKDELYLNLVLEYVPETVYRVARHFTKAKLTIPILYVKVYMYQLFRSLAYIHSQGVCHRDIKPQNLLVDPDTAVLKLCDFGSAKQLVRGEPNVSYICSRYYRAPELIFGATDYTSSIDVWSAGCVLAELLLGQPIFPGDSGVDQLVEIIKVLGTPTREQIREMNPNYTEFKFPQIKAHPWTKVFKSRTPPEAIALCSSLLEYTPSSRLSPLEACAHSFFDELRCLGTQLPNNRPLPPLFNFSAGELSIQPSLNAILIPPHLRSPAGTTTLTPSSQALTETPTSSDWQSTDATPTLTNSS
Sequence of full-length kinase/Nluc fusion proteins (Homo sapiens, UniProt Q13546) (Q13546 whole entry, the tested form may be a part): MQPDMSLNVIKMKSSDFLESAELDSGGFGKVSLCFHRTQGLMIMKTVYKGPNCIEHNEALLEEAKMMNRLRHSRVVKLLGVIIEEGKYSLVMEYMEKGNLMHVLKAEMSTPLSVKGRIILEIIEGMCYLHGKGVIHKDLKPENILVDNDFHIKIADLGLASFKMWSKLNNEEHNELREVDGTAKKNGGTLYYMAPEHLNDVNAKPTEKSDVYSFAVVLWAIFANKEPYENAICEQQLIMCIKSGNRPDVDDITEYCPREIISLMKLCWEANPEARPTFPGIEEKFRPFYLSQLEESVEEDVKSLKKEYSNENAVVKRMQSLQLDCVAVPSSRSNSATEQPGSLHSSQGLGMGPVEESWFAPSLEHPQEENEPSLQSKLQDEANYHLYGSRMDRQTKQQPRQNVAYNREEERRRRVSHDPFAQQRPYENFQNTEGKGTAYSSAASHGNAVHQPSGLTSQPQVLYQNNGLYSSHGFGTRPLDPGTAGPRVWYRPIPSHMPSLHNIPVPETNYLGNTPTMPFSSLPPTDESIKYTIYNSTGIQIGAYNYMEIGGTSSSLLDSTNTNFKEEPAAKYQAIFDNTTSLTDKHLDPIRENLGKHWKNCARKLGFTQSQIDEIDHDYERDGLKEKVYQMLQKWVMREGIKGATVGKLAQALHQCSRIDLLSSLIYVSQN
Sequence of full-length kinase/Nluc fusion proteins (Homo sapiens, UniProt Q8IVW4) (Q8IVW4 whole entry, the tested form may be a part): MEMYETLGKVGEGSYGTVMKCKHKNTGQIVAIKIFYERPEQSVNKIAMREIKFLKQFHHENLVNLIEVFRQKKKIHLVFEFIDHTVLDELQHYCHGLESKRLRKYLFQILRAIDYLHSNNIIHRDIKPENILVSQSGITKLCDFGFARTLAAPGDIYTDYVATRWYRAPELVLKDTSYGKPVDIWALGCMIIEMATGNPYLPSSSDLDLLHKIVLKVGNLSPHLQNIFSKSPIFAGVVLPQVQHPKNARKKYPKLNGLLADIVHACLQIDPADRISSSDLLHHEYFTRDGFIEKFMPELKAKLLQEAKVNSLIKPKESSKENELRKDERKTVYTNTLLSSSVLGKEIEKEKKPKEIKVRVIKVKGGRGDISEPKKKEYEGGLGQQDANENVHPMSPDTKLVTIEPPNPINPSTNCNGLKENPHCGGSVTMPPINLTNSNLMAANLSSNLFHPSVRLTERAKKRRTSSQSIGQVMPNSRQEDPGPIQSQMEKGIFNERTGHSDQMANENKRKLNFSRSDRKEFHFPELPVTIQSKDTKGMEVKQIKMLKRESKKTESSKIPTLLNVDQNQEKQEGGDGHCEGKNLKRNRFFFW
Sequence of full-length kinase/Nluc fusion proteins (Homo sapiens, UniProt Q00532) (Q00532 whole entry, the tested form may be a part): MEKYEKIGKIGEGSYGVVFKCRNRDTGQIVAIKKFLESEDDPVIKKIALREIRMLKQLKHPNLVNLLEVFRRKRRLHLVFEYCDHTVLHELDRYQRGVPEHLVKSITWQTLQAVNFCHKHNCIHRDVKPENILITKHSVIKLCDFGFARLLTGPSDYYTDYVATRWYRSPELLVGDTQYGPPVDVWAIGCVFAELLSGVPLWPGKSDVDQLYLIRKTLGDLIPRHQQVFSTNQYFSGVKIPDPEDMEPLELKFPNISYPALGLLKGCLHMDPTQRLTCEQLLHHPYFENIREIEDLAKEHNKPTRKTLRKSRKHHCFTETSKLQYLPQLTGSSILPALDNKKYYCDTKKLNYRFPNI
Sequence of full-length kinase/Nluc fusion proteins (Homo sapiens, UniProt P54762) (P54762 18-984): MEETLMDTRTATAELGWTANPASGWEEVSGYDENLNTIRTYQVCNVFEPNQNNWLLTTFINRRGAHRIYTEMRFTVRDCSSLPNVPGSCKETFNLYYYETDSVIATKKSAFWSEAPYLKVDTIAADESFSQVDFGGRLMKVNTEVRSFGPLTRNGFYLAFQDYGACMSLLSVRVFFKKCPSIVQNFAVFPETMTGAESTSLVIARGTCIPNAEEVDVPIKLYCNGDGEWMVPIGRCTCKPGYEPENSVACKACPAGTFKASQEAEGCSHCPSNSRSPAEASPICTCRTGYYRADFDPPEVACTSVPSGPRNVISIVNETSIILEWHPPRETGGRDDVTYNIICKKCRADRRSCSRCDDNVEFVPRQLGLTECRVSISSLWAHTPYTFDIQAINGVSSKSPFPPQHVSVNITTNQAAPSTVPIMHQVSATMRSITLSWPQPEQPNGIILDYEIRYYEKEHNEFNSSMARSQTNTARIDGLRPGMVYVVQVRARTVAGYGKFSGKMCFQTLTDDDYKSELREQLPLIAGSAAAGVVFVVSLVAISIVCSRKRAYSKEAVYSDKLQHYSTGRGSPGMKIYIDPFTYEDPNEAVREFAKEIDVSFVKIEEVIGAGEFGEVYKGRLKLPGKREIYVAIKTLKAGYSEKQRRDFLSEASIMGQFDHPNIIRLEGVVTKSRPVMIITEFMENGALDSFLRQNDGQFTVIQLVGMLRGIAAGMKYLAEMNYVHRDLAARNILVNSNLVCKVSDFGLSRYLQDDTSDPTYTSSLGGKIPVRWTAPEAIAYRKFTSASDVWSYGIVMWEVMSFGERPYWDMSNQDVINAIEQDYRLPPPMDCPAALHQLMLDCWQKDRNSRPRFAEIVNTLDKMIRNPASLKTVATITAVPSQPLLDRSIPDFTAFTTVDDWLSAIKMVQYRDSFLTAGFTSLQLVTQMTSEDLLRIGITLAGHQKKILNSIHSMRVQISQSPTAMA
Sequence of full-length kinase/Nluc fusion proteins (Homo sapiens, UniProt Q92772) (Q92772 whole entry, the tested form may be a part): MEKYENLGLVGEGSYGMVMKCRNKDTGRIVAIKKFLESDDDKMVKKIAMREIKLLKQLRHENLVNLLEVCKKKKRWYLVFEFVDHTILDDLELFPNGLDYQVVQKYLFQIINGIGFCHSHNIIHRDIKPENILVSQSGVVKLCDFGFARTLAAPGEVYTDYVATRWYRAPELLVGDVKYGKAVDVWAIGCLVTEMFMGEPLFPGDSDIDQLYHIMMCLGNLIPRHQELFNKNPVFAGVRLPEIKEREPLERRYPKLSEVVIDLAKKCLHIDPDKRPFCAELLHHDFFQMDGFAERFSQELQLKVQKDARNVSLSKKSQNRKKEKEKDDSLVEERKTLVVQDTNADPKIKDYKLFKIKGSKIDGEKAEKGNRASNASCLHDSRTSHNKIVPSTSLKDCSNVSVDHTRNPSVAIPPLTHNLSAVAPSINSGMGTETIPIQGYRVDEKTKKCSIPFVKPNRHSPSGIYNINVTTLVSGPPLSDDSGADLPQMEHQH
Sequence of full-length kinase/Nluc fusion proteins (Homo sapiens, UniProt Q04771) (Q04771 21-509): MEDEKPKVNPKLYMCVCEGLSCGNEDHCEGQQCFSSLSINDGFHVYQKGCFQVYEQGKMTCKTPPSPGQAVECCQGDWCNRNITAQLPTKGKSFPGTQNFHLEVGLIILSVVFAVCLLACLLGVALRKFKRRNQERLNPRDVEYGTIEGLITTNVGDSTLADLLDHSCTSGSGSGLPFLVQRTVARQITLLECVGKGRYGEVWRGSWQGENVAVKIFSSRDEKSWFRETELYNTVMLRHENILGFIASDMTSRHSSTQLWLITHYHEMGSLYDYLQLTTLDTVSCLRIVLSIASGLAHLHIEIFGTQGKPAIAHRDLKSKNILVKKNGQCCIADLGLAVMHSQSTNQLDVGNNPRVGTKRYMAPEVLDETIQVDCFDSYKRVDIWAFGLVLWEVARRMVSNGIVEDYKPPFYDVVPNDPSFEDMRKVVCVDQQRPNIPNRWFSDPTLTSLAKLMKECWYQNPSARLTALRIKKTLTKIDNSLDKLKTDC
Sequence of full-length kinase/Nluc fusion proteins (Homo sapiens, UniProt P29320) (P29320 21-983): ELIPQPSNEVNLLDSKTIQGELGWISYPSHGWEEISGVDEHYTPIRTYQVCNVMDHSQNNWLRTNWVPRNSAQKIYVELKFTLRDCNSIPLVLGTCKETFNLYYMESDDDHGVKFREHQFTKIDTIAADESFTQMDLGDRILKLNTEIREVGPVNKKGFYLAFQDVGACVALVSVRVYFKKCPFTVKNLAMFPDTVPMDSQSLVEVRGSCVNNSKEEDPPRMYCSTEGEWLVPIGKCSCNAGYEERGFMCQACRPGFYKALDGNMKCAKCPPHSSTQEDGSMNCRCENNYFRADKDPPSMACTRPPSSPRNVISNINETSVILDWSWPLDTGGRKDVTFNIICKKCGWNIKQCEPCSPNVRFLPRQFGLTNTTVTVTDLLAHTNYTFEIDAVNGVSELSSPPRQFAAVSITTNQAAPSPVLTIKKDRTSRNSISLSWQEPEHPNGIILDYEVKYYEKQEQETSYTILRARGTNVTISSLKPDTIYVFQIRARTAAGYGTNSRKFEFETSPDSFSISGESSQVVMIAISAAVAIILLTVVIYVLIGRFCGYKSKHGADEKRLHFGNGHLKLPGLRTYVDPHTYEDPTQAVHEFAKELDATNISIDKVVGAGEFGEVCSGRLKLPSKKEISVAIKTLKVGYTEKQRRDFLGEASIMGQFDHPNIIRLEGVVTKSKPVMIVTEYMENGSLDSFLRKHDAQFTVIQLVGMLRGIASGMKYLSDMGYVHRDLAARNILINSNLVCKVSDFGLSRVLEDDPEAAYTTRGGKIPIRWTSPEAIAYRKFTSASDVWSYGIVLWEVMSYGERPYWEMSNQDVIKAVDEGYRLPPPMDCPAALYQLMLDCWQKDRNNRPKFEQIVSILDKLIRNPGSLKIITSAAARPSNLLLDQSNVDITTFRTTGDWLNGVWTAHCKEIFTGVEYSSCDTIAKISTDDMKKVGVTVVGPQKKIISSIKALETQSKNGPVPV

`N#CCc1ccc(Nc2nc(NCCCCNC(=O)CCc3ccc4n3[B-](F)(F)[N+]3=C(c5ccc[nH]5)C=CC3=C4)cc(Nc3cc(C4CC4)[nH]n3)n2)cc1` [Energy Transfer Probe 1, 2-(4-((4-((4-aminobutyl)amino)-6-((5-cyclopropyl-1H-pyrazol-3-yl)amino)pyrimidin-2-yl)amino)phenyl)acetonitrile-NanoBRET 590]: the EC50 (as a rule, the midpoint of the concentration-response curve) in assay [1] came out at 200 nM; in assay [2] it was 100 nM; in [3], 200 nM; in assay [4] it was 300 nM; in assay [5] it was 200 nM; in assay [6], 300 nM. In addition, the EC50 in assay [7] was above 1000 nM; in assay [8] it was 200 nM; in [9], 200 nM; in assay [10], above 1000 nM; in [11] it was 100 nM; in assay [12] it was 300 nM. For the same compound, the half-maximal effective concentration (EC50) in [13] is 300 nM.
